The values that follow come from ChEMBL document CHEMBL5442379, “ASAP - SARS-CoV-2 nsp3 macrodomain single point” (2024).

This assay addresses Replicase polyprotein 1ab (Severe acute respiratory syndrome coronavirus 2) (UniProt P0DTD1).

Structures are written as SMILES.

Description: Functional biochemical assay to identify treatments for viral infectious disease that targets SARS-COV-2 nsp3 macrodomain, whereby the mechanism of action displaces an ADP-Ribose modified peptide from the binding site. Utilizing a time-resolved fluorescence method to measure binding by reading the emitted fluorescence intensity in two wavelengths.

The inhibition is the drop in the measured response relative to a control, in per cent. Turning to `Cc1ccc(S(=O)(=O)Nc2ccccc2F)cc1C(=O)Nc1cnc2[nH]ncc2c1`, where the note is “Concentration 50.0 uM, Number of replicates 2.0, Standard deviation 3.248 %”, the inhibition is 0.764%.

On to `Cc1[nH]c2ncnc(NC(=O)c3ncn(-c4ccccc4)n3)c2c1C`, for which the inhibition (Concentration 50.0 uM, Number of replicates 2.0, Standard deviation 1.407 %) stood at 7.1%.

Regarding `CC1(C)CNCCN1C(=O)c1ccc(NC(=O)Nc2ccccc2)cc1`, the inhibition is, setting by setting: (Concentration 49.75 uM, Number of replicates 2.0, Standard deviation 5.654 %) 2.24%; (Concentration 99.5 uM, Number of replicates 2.0, Standard deviation 1.022 %) 1.39%.

As to `Cc1cnc(C(=O)N(CCC(=O)N2CCNCC2)Cc2cccc(Cl)c2)nc1`, the inhibition runs as follows: (Concentration 49.75 uM, Number of replicates 2.0, Standard deviation 2.063 %) -1.49%; (Concentration 99.5 uM, Number of replicates 2.0, Standard deviation 9.956 %) 6.47%.

With `C[C@@H](NC(=O)c1ncnc2[nH]ccc12)c1ncc(C(=O)O)c(=O)[nH]1`, the inhibition by setting is: (Concentration 49.75 uM, Number of replicates 2.0, Standard deviation 2.226 %) 4.87%; (Concentration 99.5 uM, Number of replicates 2.0, Standard deviation 1.623 %) 10.7%.

Regarding `C=CCn1c(Cc2ccccc2)nnc1Sc1ncnc2[nH]ccc12`, the inhibition (Concentration 50.0 uM, Number of replicates 2.0, Standard deviation 4.634 %) is -7.71%.

In the case of `Cn1cc([C@H]2CSCCN2c2ncnc3[nH]ccc23)cn1`, the inhibition is -6.49% (Concentration 49.75 uM, Number of replicates 2.0, Standard deviation 2.461 %) and -3.46% (Concentration 99.5 uM, Number of replicates 2.0, Standard deviation 0.732 %).

As for `O=C(c1ccnnc1O)N1CCC(c2ccn3ncc(C(=O)N4CCCCC4)c3c2)CC1`, the inhibition by setting is: (Concentration 49.75 uM, Number of replicates 2.0, Standard deviation 0.647 %) -7.59%; (Concentration 99.5 uM, Number of replicates 2.0, Standard deviation 0.871 %) 10.2%.

On to `Fc1ccc(OC(F)F)c(CNc2cnc3[nH]ncc3c2)c1`, for which, under “Concentration 50.0 uM, Number of replicates 2.0, Standard deviation 3.077 %”, the inhibition was -6.67%.

Consider `COc1cccc(Cl)c1CNc1ncnc2[nH]ncc12`, for which, under “Concentration 50.0 uM, Number of replicates 2.0, Standard deviation 0.519 %”, the inhibition was -1.83%.

On to `c1ccc(OC[C@@H]2CCCN2c2ncnc3[nH]ccc23)cc1`, for which the inhibition (Concentration 50.0 uM, Number of replicates 2.0, Standard deviation 1.709 %) was -0.466%.

For the molecule `OC[C@H](Cc1ccccc1)Nc1ncnc2[nH]ccc12`, the inhibition is -1.29% (Concentration 50.0 uM, Number of replicates 2.0, Standard deviation 2.629 %) and 8.93% (Concentration 100.0 uM, Number of replicates 2.0, Standard deviation 0.62 %).

With `Cc1cc(C(=O)Nc2[nH]nc3nc(O)ccc23)c2c(C)nn(C)c2n1`, the inhibition is, setting by setting: (Concentration 50.0 uM, Number of replicates 2.0, Standard deviation 0.36 %) -6.17%; (Concentration 100.0 uM, Number of replicates 2.0, Standard deviation 2.675 %) -3.32%.

For the molecule `O=C(CCN(Cc1cccc(Cl)c1)C(=O)[C@@H]1CC1(F)F)N1CCNCC1`, the inhibition reads like this: (Concentration 49.75 uM, Number of replicates 2.0, Standard deviation 3.095 %) -2.07%; (Concentration 99.5 uM, Number of replicates 2.0, Standard deviation 1.648 %) -3.76%.

In the case of `CS(=O)(=O)N1CC[C@@H](COC(=O)c2ncnc3[nH]ccc23)C1`, the inhibition (Concentration 50.0 uM, Number of replicates 2.0, Standard deviation 2.196 %) turned out to be 0.187%.

For `Cc1nc(NC(=O)Cn2cnc3ccccc3c2=O)c2cc[nH]c2n1`, the inhibition by setting is: (Concentration 49.75 uM, Number of replicates 2.0, Standard deviation 4.18 %) -4.07%; (Concentration 99.5 uM, Number of replicates 2.0, Standard deviation 1.131 %) -4.89%.

Take `Nc1ncnc2c1ncn2Cc1cccc2ncnn12`: the inhibition runs as follows: (Concentration 49.75 uM, Number of replicates 2.0, Standard deviation 0.496 %) -0.553%; (Concentration 99.5 uM, Number of replicates 2.0, Standard deviation 1.809 %) -3.16%.

Take `O=C(c1cncc(O)n1)N1CCC(c2ccn3ncc(C(=O)N4CCCCC4)c3c2)CC1`: the inhibition was found to be 26.6% (Concentration 49.75 uM, Number of replicates 2.0, Standard deviation 0.648 %) and 41.9% (Concentration 99.5 uM, Number of replicates 2.0, Standard deviation 1.31 %).

With `CO[C@@]1(C(=O)O)CCN(C(=O)c2ncnc3[nH]ccc23)C1`, the inhibition (Concentration 50.0 uM, Number of replicates 2.0, Standard deviation 2.289 %) was -4.18% and the inhibition (Concentration 100.0 uM, Number of replicates 2.0, Standard deviation 3.346 %) is -3.71%.

Take `CSc1cccc(NC(=O)c2ncnc3[nH]ccc23)c1`: the inhibition (Concentration 50.0 uM, Number of replicates 2.0, Standard deviation 4.41 %) is -4.67%.

In the case of `Cc1cc(C(F)(F)F)nn1CCNc1ncnc2[nH]ccc12`, the inhibition by setting is: (Concentration 50.0 uM, Number of replicates 2.0, Standard deviation 3.563 %) -3.04%; (Concentration 50.0 uM, Number of replicates 2.0, Standard deviation 6.31 %) 4.6%; (Concentration 100.0 uM, Number of replicates 2.0, Standard deviation 1.334 %) -2.21%.

Turning to `O=C(c1cccnc1O)N1CCC(c2ccn3ncc(C(=O)N4CCCCC4)c3c2)CC1`, the inhibition (Concentration 49.75 uM, Number of replicates 2.0, Standard deviation 3.415 %) is -7.04% and the inhibition (Concentration 99.5 uM, Number of replicates 2.0, Standard deviation 3.017 %) was -3.94%.

For the molecule `CC(=O)Nc1ccc(S(=O)(=O)NNc2ncnc3sccc23)cc1`, the inhibition (Concentration 50.0 uM, Number of replicates 2.0, Standard deviation 2.273 %) amounted to 5.36%.

For the molecule `COCc1cc(CNc2cc3c(O)ncnc3cn2)no1`, the inhibition (Concentration 50.0 uM, Number of replicates 2.0, Standard deviation 0.223 %) was found to be 3.31%.

`O=C(c1cnc2[nH]ncc2c1)N1CCC(c2ccn3ncc(C(=O)N4CCCCC4)c3c2)CC1`: the inhibition was 15.8% (Concentration 49.75 uM, Number of replicates 2.0, Standard deviation 0.466 %) and 34.4% (Concentration 99.5 uM, Number of replicates 2.0, Standard deviation 6.369 %).

In the case of `CC1(C)CN(C(=O)c2ccc(NC(=O)Nc3ccccc3)cc2)C[C@@]1(F)C(=O)O`, the inhibition reads like this: (Concentration 49.75 uM, Number of replicates 2.0, Standard deviation 0.273 %) -2.57%; (Concentration 99.5 uM, Number of replicates 2.0, Standard deviation 1.041 %) -5.19%.

On to `Cc1cncc(NCc2csc(-c3ccccn3)n2)c1`, for which the inhibition (Concentration 50.0 uM, Number of replicates 2.0, Standard deviation 0.194 %) is -5.02%.

Turning to `C[C@@H]1[C@H](O)CCCN1C(=O)c1ccc(NC(=O)Nc2ccccc2)cc1`, the inhibition reads like this: (Concentration 49.75 uM, Number of replicates 2.0, Standard deviation 0.457 %) -2.96%; (Concentration 99.5 uM, Number of replicates 2.0, Standard deviation 5.068 %) -2.72%.

As to `COC(=O)[C@]1(F)CCN(C(=O)c2ccc(NC(=O)Nc3ccccc3)cc2)C1`, the inhibition (Concentration 49.75 uM, Number of replicates 2.0, Standard deviation 1.195 %) is -0.893% and the inhibition (Concentration 99.5 uM, Number of replicates 2.0, Standard deviation 2.11 %) was 0.834%.

For the molecule `O=C(CCN(Cc1cccc(Cl)c1)C(=O)c1ncccc1Cl)N1CCNCC1`, the inhibition was found to be 2.75% (Concentration 49.75 uM, Number of replicates 2.0, Standard deviation 1.117 %) and 7.52% (Concentration 99.5 uM, Number of replicates 2.0, Standard deviation 8.572 %).

For the molecule `CC(C)[C@@H](Nc1ncnc2[nH]ccc12)c1nncn1C`, the inhibition by setting is: (Concentration 49.75 uM, Number of replicates 2.0, Standard deviation 0.565 %) 4.59%; (Concentration 99.5 uM, Number of replicates 2.0, Standard deviation 7.858 %) 10.8%.

Turning to `O=C(c1ccnc(S)c1)N1CCC(c2ccn3ncc(C(=O)N4CCCCC4)c3c2)CC1`, the inhibition is, setting by setting: (Concentration 49.75 uM, Number of replicates 2.0, Standard deviation 0.749 %) 20.2%; (Concentration 99.5 uM, Number of replicates 2.0, Standard deviation 3.677 %) 35.5%.

Turning to `NC(=O)c1ccccc1NC(=O)c1ncnc2[nH]ccc12`, where the note is “Concentration 50.0 uM, Number of replicates 2.0, Standard deviation 0.083 %”, the inhibition was -2.59%.

Take `Cc1n[nH]nc1C(=O)N1CCC(c2ccn3ncc(C(=O)N4CCCCC4)c3c2)CC1`: the inhibition runs as follows: (Concentration 49.75 uM, Number of replicates 2.0, Standard deviation 0.483 %) 29.3%; (Concentration 99.5 uM, Number of replicates 2.0, Standard deviation 0.403 %) 45.8%.

With `Cn1nc(NC(=O)c2cc(-c3ccco3)[nH]n2)c2nccnc21`, under “Concentration 50.0 uM, Number of replicates 2.0, Standard deviation 0.879 %”, the inhibition was -5.4%.

With `O=C(Nc1ccc(C(=O)NCc2c(C(=O)O)[nH]c3ccccc23)cc1)NC1CC1`, where the note is “Concentration 50.0 uM, Number of replicates 2.0, Standard deviation 1.193 %”, the inhibition was 86.2%.

For `C[C@@H]1CN(C(=O)c2ccc(NC(=O)Nc3ccccc3)cc2)CC(=O)N1`, the inhibition by setting is: (Concentration 49.75 uM, Number of replicates 2.0, Standard deviation 1.912 %) -0.707%; (Concentration 99.5 uM, Number of replicates 2.0, Standard deviation 5.834 %) 0.29%.

In the case of `O=C(c1ccccc1)N1CCC(c2ccn3ncc(C(=O)N4CCc5nc[nH]c5C4)c3c2)CC1`, the inhibition stood at 11.2% (Concentration 49.75 uM, Number of replicates 2.0, Standard deviation 2.532 %) and 20.3% (Concentration 99.5 uM, Number of replicates 2.0, Standard deviation 2.098 %).

In the case of `O=C(NCc1c[nH]nn1)c1cnn2ccc(C3CCN(C(=O)c4ccccc4)CC3)cc12`, the inhibition reads like this: (Concentration 49.75 uM, Number of replicates 2.0, Standard deviation 0.251 %) -2.86%; (Concentration 99.5 uM, Number of replicates 2.0, Standard deviation 8.51 %) 2.17%.

Turning to `Clc1cnc(N2CCN(c3ncnc4[nH]ccc34)CC2)c(Cl)c1`, the inhibition reads like this: (Concentration 50.0 uM, Number of replicates 2.0, Standard deviation 0.674 %) -2%; (Concentration 100.0 uM, Number of replicates 2.0, Standard deviation 2.989 %) -6.57%.

With `O=C(c1ccccc1)N1CCC(c2ccn3ncc(C(=O)N4CCCC[C@H](O)C4)c3c2)CC1`, the inhibition (Concentration 49.75 uM, Number of replicates 2.0, Standard deviation 40.732 %) turned out to be 17.8% and the inhibition (Concentration 99.5 uM, Number of replicates 2.0, Standard deviation 41.407 %) amounted to 29.8%.

As for `Cc1nc2cnccn2c1NC(=O)c1cc(-c2ccco2)[nH]n1`, the inhibition (Concentration 50.0 uM, Number of replicates 2.0, Standard deviation 2.08 %) is -3.88%.

As to `CN1CCC[C@H](NC(=O)c2cnn3ccc(C4CCN(C(=O)c5ccccc5)CC4)cc23)C1`, the inhibition runs as follows: (Concentration 49.75 uM, Number of replicates 2.0, Standard deviation 0.821 %) -6.99%; (Concentration 99.5 uM, Number of replicates 2.0, Standard deviation 3.447 %) -5.44%.

`O=C(OCc1cccc(Cl)n1)c1ncnc2[nH]ccc12`: the inhibition (Concentration 50.0 uM, Number of replicates 2.0, Standard deviation 4.164 %) came to 11.4%.
